{"source": "patent US8293274B2", "about": "“Intestinal absorptive anti-tumor agent” (Kabushiki Kaisha Sangi, priority 2005, dated 2012)", "assay": "Intestinal absorption test of various antitumor agents (plasma concentration by gas/liquid chromatography)", "description": "Rats were fasted for 16 hours and then forced oral administration to the stomach was performed using an oral gastric tube for rats.\nBlood was collected from the tail vein prior to administration and 15 and 30 minutes, 1, 2, 3, 4, 6, 8 and 24 hours after administration. The collected blood was centrifuged at 4° C. for 15 minutes at 3,000 rpm to obtain plasma, and then the plasma concentrations of the various antitumor agents were measured.\nThese concentrations were measured using gas chromatography and liquid chromatography.", "key": {"[1]": {"details": "bleomycin hydrochloride in plasma, rats fasted 16 hours, oral, 2.0 mg/kg"}, "[2]": {"details": "male, Sprague-Dawley, rat, in vivo, po, 50 mg/kg"}, "[3]": {"details": "male, Sprague-Dawley, rat, in vivo, po, 0.2 mg/kg"}}, "note": "Where a name gives a salt, the structure may show the parent alone.", "data": [{"compound": "bleomycin hydrochloride [Comparative Test Example 4-3]", "values": [{"measurement": "AUC0-24 h", "setting": "[1]", "value": 520, "unit": "ng·h/mL"}, {"measurement": "Cmax", "setting": "[1]", "value": 120, "unit": "ng/mL"}, {"measurement": "Tmax", "setting": "[1]", "value": 85.2, "unit": "min"}]}, {"compound": "O=P1(NCCCl)OCCCN1CCCl", "note": "(stereo not drawn) [Comparative Test Example 4-2, ifosfamide]", "values": [{"measurement": "AUC(0-t)", "setting": "[2]", "value": 1240, "unit": "ng·h/mL"}, {"measurement": "Cmax", "setting": "[2]", "value": 250, "unit": "ng/mL"}, {"measurement": "Tmax", "setting": "[2]", "value": 45, "unit": "min"}]}, {"compound": "CC[C@]1(O)C[C@H]2CN(CCc3c([nH]c4ccccc34)[C@@](C(=O)OC)(c3cc4c(cc3OC)N(C=O)[C@H]3[C@@](O)(C(=O)OC)[C@H](OC(C)=O)[C@]5(CC)C=CCN6CC[C@]43[C@@H]65)C2)C1", "note": "[Comparative Test Example 4-4, vincristine sulfate]", "values": [{"measurement": "AUC(0-t)", "setting": "[3]", "value": 1110, "unit": "ng·h/mL"}, {"measurement": "Cmax", "setting": "[3]", "value": 90, "unit": "ng/mL"}, {"measurement": "Tmax", "setting": "[3]", "value": 49.8, "unit": "min"}]}]}
